Reference: US20020022022A1, “Inhibition of cell proliferation and matrix synthesis by antioxidants and NAD(P)H oxidase inhibitors” (priority 2000, published 2002)

Key:
[1] = tested on: superoxide anion (—O2^−) generation in coronary media; test: —O2^− production in uninjured coronary media (SOD-inhibitable NBT reduction); format: cell-based, pigs; details: DETCA 10 mM
Protocol: (§1) The production of —O2^− is measured by superoxide dismutase- (SOD) or tiron-inhibitable conversion of nitroblue tetrazolium (NBT) to formazan. (20,21)
—O2^− production in coronary arteries: Coronary arteries are dissected free from adipose tissue and myocardium and then cut into ˜5 mm rings and placed in 24-well plates. Tissues are balanced in phenol-free DMEM at 37° C. in a CO2 incubator for 30 minutes with or without addition of SOD (SOD, 1000 unit/ml) or tiron (10 mM), both scavengers of —O2^− Freshly made NBT (100 mg/L in phenol-free DMEM) is added to the tissues with a gentle rocking for 3 hours. The reaction is terminated by addition of equal volume of 0.5N HCl, and tissues are rinsed twice with cold PBS. To extract formazan, tissues are pulverized in liquid nitrogen and dissolved in 100% pyridine at 80° C. for 30 minutes. After centrifugation, light absorbance is read in supernatants at 540 nm. The NBT reduction to formazan is calculated using the following formula: NBT reduction=A×V/(T×E×L) (A: absorbance; V: volume of solubilizing solution; T: time of incubation with NBT (minutes); E: extinction coefficient=0.72 mmol.mm; L: length of light travel through the solution, 10 mm). Either SOD- or tiron-inhibitable NBT reduction is calculated as measures of —O2^− production (pmol/min/mg wet weight). […]

[2] = tested on: superoxide anion (—O2^−) generation in coronary adventitia; test: —O2^− production in uninjured coronary adventitia (SOD-inhibitable NBT reduction); format: cell-based, pigs; details: uninjured coronary adventitia; DETCA 10 mM
Protocol: as §1
—O2^− production in coronary arteries: Coronary arteries are dissected free from adipose tissue and myocardium and then cut into ˜5 mm rings and placed in 24-well plates. Tissues are balanced in phenol-free DMEM at 37° C. in a CO2 incubator for 30 minutes with or without addition of SOD (SOD, 1000 unit/ml) or tiron (10 mM), both scavengers of —O2^− Freshly made NBT (100 mg/L in phenol-free DMEM) is added to the tissues with a gentle rocking for 3 hours. The reaction is terminated by addition of equal volume of 0.5N HCl, and tissues are rinsed twice with cold PBS. To extract formazan, tissues are pulverized in liquid nitrogen and dissolved in 100% pyridine at 80° C. for 30 minutes. After centrifugation, light absorbance is read in supernatants at 540 nm. The NBT reduction to formazan is calculated using the following formula: NBT reduction=A×V/(T×E×L) (A: absorbance; V: volume of solubilizing solution; T: time of incubation with NBT (minutes); E: extinction coefficient=0.72 mmol.mm; L: length of light travel through the solution, 10 mm). Either SOD- or tiron-inhibitable NBT reduction is calculated as measures of —O2^− production (pmol/min/mg wet weight). To determine the pathways mediating —O2^− production, several inhibitors are used in the experiments, including diphenyleneiodonium (DPI, 100 μM), rotenone (ROT, 50 μM), oxypurinol (OXY, 300 μM), N^ω-nitro-L-arginine methyl ester (L-NAME, 1 mM), and diethyldithio-carbamic acid (DETCA, 10 mM). The n value represents the number of vascular rings obtained from at least 3 animals per experimental condition.

[3] = cited from earlier work

Molecule: CCN(CC)C(=S)S [DETCA, diethyldithio-carbamic acid]
- —O2^− generation in media with SOD inhibitor [1]: 36.3 ± 8.2 pmol/mg/min
- —O2^− generation in adventitia with SOD inhibitor [2]: 19.6 ± 2.5 pmol/mg/min

Molecule: CCOC(=O)[C@H](CCc1ccccc1)N[C@@H](C)C(=O)N1[C@H](C(=O)O)C[C@@H]2CCC[C@@H]21 [ramipril]
- cardiovascular mortality ([3]; chronic administration, HOPE trial): reduction

Molecule: vitamin E
- clinical results with antioxidant ([3]; clinical): largely negative
